Measured values taken from patent EP0726072A2, “Composition for the treatment of hypertension and congestive heart failure, containing an angiotensin II antagonist and an endopeptidase inhibitor” (BRISTOL-MYERS SQUIBB COMPANY, priority 1995, dated 1996).

Legend:
cardiomyopathic hamsters = conditions: 30 µmol/kg, i.v.; within 90 minutes; previously shown in this model; cited from earlier work
1K1C hypertensive dogs = assay: Haemodynamic, renal and hormonal effects in conscious 1-kidney-1-clip hypertensive dogs; type: in vivo
Procedure: The studies described in this experiment were conducted in dogs that had been rendered hypertensive by prior unilateral nephrectomy and constriction of the remaining renal artery. This model is characterized by normal basal levels of plasma renin activity and is relatively resistant to the anti-hypertensive activity of angiotensin converting enzyme inhibitors and AT1 receptor antagonists.
The following experiments were conducted in fasted 1K1C hypertensive dogs lightly restrained in standard canine slings. An indwelling arterial catheter was accessed via a subcutaneous port for measurement of blood pressure via a Gould-Statham pressure transducer. Mean arterial pressure (MAP) was continuously recorded on a Gould chart writer and stored electronically using a Po-Ne-Mah data acquisition system. During each study, urine was collected at 20 minute intervals via a Foley bladder catheter for determination of urine volume. The concentrations of urinary sodium and potassium were measured using ion-selective electrodes and their rates of urinary excretion (µEq/min) were calculated. Glomerular filtration rate (GFR) and effective renal plasma flow (ERPF) were determined by the renal clearances of exogenous creatinine and para-aminohippuric acid (PAH), respectively. The concentrations of creatinine and PAH in sequential samples of urine and plasma were determined by spectrophotometric assays and the clearances were calculated by the standard formula.
Arterial blood samples were drawn at the end of the control period and at 60 minute intervals thereafter for determination of the plasma concentrations of atrial natriuretic peptide (ANP), cyclic GMP and plasma renin activity (PRA) by separate radioimmunoassays. The plasma and urine samples were preserved and the assays were conducted according to standard radioimmunoassay procedures. Urinary excretion rates of cyclic GMP and ANP were calculated and expressed as pmol/min and fmol/min, respectively.
In each study, baseline measurements were obtained during two 20 minute control periods. One of the treatments was then administered and sampling continued at 20 minute intervals for three hours.
To minimize inter-animal variability, each data point was expressed as the change from the average control value for that parameter. Significant differences among treatments were identified by analysis of variance for repeated measures. […] Results are given as mean ± SEM.

[1] = 20 min after treatment, 30 µmol/kg iv of each agent
[2] = 40 min after treatment, 30 µmol/kg iv of each agent
[3] = 60 min after treatment, 30 µmol/kg iv of each agent
[4] = 80 min after treatment, 30 µmol/kg iv of each agent
[5] = 100 min after treatment, 30 µmol/kg iv of each agent
[6] = 120 min after treatment, 30 µmol/kg iv of each agent
[7] = 140 min after treatment, 30 µmol/kg iv of each agent
[8] = 160 min after treatment, 30 µmol/kg iv of each agent
[9] = 180 min after treatment, 30 µmol/kg iv of each agent

## O=C(O)CCNC(=O)C(CS)Cc1ccccc1 (racemic) [SQ 28603, (±)-N-[2-(mercaptomethyl)-1-oxo-3-phenylpropyl]-β-alanine]
Cardiomyopathic hamsters
  plasma atrial natriuretic peptide concentration: doubling
1K1C hypertensive dogs; 30 µmol/kg iv of each agent, cumulative over 3 hours
  increase in the amount of sodium excreted during the 3 hours after injection: 5.2±2.3 mEq/3 hr
1K1C hypertensive dogs; 30 µmol/kg iv of each agent, not statistically significant compared to vehicle
  Cyclic GMP excretion, change over 3 hr: +32±28 nmol/3 hr
1K1C hypertensive dogs; [1]
  ANP Excretion, Change from control: 20.8 ± 4.9 fmol/min
  Cyclic GMP Excretion, Change from control: 106 ± 295 pmol/min
  Effective Renal Plasma Flow, Change from control: 6 ± 38 mL/min
  Glomerular Filtration Rate, Change from control: 6 ± 11 mL/min
  Mean Arterial Pressure, Change from control: 6±1 mm Hg
  Sodium Excretion, Change from control: 13±4 µEq/min
  Urine Volume, Change from control: 0.29 ± 0.31 mL/min
1K1C hypertensive dogs; [2]
  ANP Excretion, Change from control: 24.0 ± 4.6 fmol/min
  Cyclic GMP Excretion, Change from control: 101 ± 280 pmol/min
  Effective Renal Plasma Flow, Change from control: -5 ± 15 mL/min
  Glomerular Filtration Rate, Change from control: 3 ± 2 mL/min
  Mean Arterial Pressure, Change from control: 9±3 mm Hg
  Sodium Excretion, Change from control: 21±16 µEq/min
  Urine Volume, Change from control: 0.15 ± 0.13 mL/min
1K1C hypertensive dogs; [3]
  ANP Excretion, Change from control: 45.2 ± 24.2 fmol/min
  Cyclic GMP Excretion, Change from control: 338 ± 206 pmol/min
  Effective Renal Plasma Flow, Change from control: 3 ± 20 mL/min
  Glomerular Filtration Rate, Change from control: 6 ± 5 mL/min
  Mean Arterial Pressure, Change from control: 8±3 mm Hg
  Plasma Renin Activity, Change from control: -0.07±0.05 pmol AI/ml/hr
  Sodium Excretion, Change from control: 14±9 µEq/min
  Urine Volume, Change from control: 0.18 ± 0.14 mL/min
1K1C hypertensive dogs; [4]
  ANP Excretion, Change from control: 55.5 ± 19.7 fmol/min
  Cyclic GMP Excretion, Change from control: 226 ± 154 pmol/min
  Effective Renal Plasma Flow, Change from control: -20 ± 6 mL/min
  Glomerular Filtration Rate, Change from control: 5 ± 2 mL/min
  Mean Arterial Pressure, Change from control: 8±2 mm Hg
  Sodium Excretion, Change from control: 25±13 µEq/min
  Urine Volume, Change from control: 0.21 ± 0.15 mL/min
1K1C hypertensive dogs; [5]
  ANP Excretion, Change from control: 41.0 ± 12.3 fmol/min
  Cyclic GMP Excretion, Change from control: 128 ± 178 pmol/min
  Effective Renal Plasma Flow, Change from control: -25 ± 10 mL/min
  Glomerular Filtration Rate, Change from control: 5 ± 4 mL/min
  Mean Arterial Pressure, Change from control: 5±3 mm Hg
  Sodium Excretion, Change from control: 24±12 µEq/min
  Urine Volume, Change from control: 0.07 ± 0.08 mL/min
1K1C hypertensive dogs; [6]
  ANP Excretion, Change from control: 48.3 ± 21.5 fmol/min
  Cyclic GMP Excretion, Change from control: 117 ± 220 pmol/min
  Effective Renal Plasma Flow, Change from control: -15 ± 6 mL/min
  Glomerular Filtration Rate, Change from control: 5 ± 1 mL/min
  Mean Arterial Pressure, Change from control: 3±4 mm Hg
  Plasma Renin Activity, Change from control: -0.02±0.05 pmol AI/ml/hr
  Sodium Excretion, Change from control: 35±19 µEq/min
  Urine Volume, Change from control: 0.12 ± 0.13 mL/min
1K1C hypertensive dogs; [7]
  ANP Excretion, Change from control: 41.8 ± 14.2 fmol/min
  Cyclic GMP Excretion, Change from control: 121 ± 182 pmol/min
  Effective Renal Plasma Flow, Change from control: -11 ± 12 mL/min
  Glomerular Filtration Rate, Change from control: 7 ± 4 mL/min
  Mean Arterial Pressure, Change from control: 4±2 mm Hg
  Sodium Excretion, Change from control: 39±18 µEq/min
  Urine Volume, Change from control: 0.20 ± 0.10 mL/min
1K1C hypertensive dogs; [8]
  ANP Excretion, Change from control: 36.9 ± 12.4 fmol/min
  Cyclic GMP Excretion, Change from control: 100 ± 246 pmol/min
  Effective Renal Plasma Flow, Change from control: -1 ± 12 mL/min
  Glomerular Filtration Rate, Change from control: 9 ± 5 mL/min
  Mean Arterial Pressure, Change from control: 5±2 mm Hg
  Sodium Excretion, Change from control: 44±19 µEq/min
  Urine Volume, Change from control: 0.24 ± 0.11 mL/min
1K1C hypertensive dogs; [9]
  ANP Excretion, Change from control: 29.0 ± 7.9 fmol/min
  Cyclic GMP Excretion, Change from control: 343 ± 170 pmol/min
  Effective Renal Plasma Flow, Change from control: -4 ± 9 mL/min
  Glomerular Filtration Rate, Change from control: 10 ± 4 mL/min
  Mean Arterial Pressure, Change from control: 7±3 mm Hg
  Plasma Renin Activity, Change from control: -0.01±0.7 pmol AI/ml/hr
  Sodium Excretion, Change from control: 44±18 µEq/min
  Urine Volume, Change from control: 0.17 ± 0.06 mL/min
1K1C hypertensive dogs; Control, before treatment
  ANP Excretion: 1.9 ± 0.2 fmol/min
  Cyclic GMP Excretion: 1017 ± 180 pmol/min
  Effective Renal Plasma Flow: 123 ± 15 mL/min
  Glomerular Filtration Rate: 39 ± 5 mL/min
  Mean Arterial Pressure: 132±8 mm Hg
  Plasma Renin Activity: 0.16±0.02 pmol AI/ml/hr
  Sodium Excretion: 40±20 µEq/min
  Urine Volume: 0.38 ± 0.13 mL/min
1K1C hypertensive dogs; summary of TABLE 2, 30 µmol/kg iv of each agent, 3 hours
  sodium excretion, effect in words: increased
1K1C hypertensive dogs; summary of TABLE 3, 30 µmol/kg iv of each agent, 3 hours
  urine volume, effect in words: increased
1K1C hypertensive dogs; summary of TABLE 6, 30 µmol/kg iv of each agent
  Urinary excretion of ANP, effect in words: increased significantly
1K1C hypertensive dogs; summary of Table 1, 30 µmol/kg iv of each agent, 3 hours
  mean arterial pressure (MAP), effect in words: initially increased
